Source: patent US12643903B2, “Bifunctional compounds for degradation of EGFR and related methods of use” (BeiGene, Ltd., priority 2020, dated 2026)

Key:
EGFR [1] = target: T1, EGFR (Homo sapiens, UniProt P00533, L858R/T790M); test: Cell Degradation 1: EGFR degradation in H1975 cells, HTRF assay; type: cell-based; details: 16 h treatment, EGFR degradation by HTRF
T1 construct: endogenous in cells; host or cells: H1975
Protocol: After 16 h treatment, add 100 μl 1×lysis buffer to each well; seal the plate and incubate 1 hour at room temperature on a plate shaker; Once the cells are lysed, 16 μL of cell lysate are transferred to a PE 384-well HTRF detection plate; 4 μL of pre-mixed HTRF antibodies are added to each well; Cover the plate with a plate sealer, spin 1000 rpm for 1 min, Incubate overnight at room temperature; Read on BMG PheraStar with HTRF protocol (337 nm-665 nm-620 nm).
(§1) The IC50 (DC50) value of a compound can be obtained by fitting the following equation Y=Bottom+(TOP−Bottom)/(1+((IC50/X)^hillslope))
(§2) Wherein, X and Y are known values, and IC50, Hillslope, Top and Bottom are the parameters obtained by fitting with software. Y is the inhibition percentage (calculated from the equation), X is the concentration of the compound; IC50 is the concentration of the compound when the 50% inhibition is reached. The smaller the IC50 value is, the stronger the inhibitory ability of the compound is. Vice versa, the higher the IC50 value is, the weaker the ability the inhibitory ability of the compound is; Hillslope represents the slope of the fitted curve, generally around 1*; Bottom represents the minimum value of the curve obtained by data fitting, which is generally 0%±20%; Top represents the maximum value of the curve obtained by data fitting, which is generally 100%±20%. The experimental data were fitted by calculating and analyzing with Dotmatics data analysis software.

EGFR [2] = target: T2, EGFR (Homo sapiens, UniProt P00533, DEL746-750); test: Cell Degradation 2: EGFR degradation in HCC827 cells, HTRF assay; type: cell-based; details: 16 h treatment, EGFR degradation by HTRF
T2 construct: endogenous in cells; host or cells: HCC827
Protocol: After 16 h treatment, add 100 μl 1×lysis buffer to each well; seal the plate and incubate 1 hour at room temperature on a plate shaker; Once the cells are lysed, 16 μl diluted (2 μL to 14 μl 1× lysisi buffer) cell lysate are transferred to a PE 384-well HTRF detection plate; 4 μL of pre-mixed HTRF antibodies are added to each well; Cover the plate with a plate sealer, spin 1000 rpm for 1 min, Incubate overnight at room temperature; Read on BMG PheraStar with HTRF protocol (337 nm-665 nm-620 nm).
as §1, §2

T2 sequence (P00533 with tags, fused parts or gaps DEL746-750): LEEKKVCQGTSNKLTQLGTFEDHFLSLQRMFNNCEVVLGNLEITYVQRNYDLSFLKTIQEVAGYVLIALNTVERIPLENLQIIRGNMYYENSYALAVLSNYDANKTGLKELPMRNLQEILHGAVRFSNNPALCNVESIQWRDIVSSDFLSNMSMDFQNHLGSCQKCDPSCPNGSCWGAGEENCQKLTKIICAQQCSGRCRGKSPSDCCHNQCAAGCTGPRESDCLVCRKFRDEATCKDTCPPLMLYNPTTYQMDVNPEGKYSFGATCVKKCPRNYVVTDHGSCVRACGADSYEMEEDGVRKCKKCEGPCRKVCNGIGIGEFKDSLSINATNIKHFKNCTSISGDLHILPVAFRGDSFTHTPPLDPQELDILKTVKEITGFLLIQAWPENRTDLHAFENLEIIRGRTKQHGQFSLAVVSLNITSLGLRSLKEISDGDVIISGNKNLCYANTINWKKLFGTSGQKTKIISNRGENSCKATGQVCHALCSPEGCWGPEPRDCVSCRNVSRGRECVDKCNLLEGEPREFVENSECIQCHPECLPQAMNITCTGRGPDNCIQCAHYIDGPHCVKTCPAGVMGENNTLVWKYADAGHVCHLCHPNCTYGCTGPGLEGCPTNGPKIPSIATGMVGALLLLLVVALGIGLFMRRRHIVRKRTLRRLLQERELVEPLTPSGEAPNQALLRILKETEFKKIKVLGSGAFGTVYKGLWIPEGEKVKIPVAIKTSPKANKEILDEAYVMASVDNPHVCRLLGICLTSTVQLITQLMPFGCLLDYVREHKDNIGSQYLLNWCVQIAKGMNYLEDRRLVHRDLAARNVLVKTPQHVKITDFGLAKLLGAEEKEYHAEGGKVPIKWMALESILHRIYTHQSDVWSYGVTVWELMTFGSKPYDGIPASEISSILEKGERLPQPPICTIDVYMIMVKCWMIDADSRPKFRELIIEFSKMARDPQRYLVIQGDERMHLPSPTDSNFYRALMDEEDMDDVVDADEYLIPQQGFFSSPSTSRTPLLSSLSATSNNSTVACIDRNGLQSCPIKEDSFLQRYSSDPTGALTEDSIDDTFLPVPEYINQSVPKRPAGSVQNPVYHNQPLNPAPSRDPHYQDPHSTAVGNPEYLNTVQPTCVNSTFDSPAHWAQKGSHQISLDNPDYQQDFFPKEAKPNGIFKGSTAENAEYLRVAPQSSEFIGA
T2 sequence (Q96SW2 whole entry partner): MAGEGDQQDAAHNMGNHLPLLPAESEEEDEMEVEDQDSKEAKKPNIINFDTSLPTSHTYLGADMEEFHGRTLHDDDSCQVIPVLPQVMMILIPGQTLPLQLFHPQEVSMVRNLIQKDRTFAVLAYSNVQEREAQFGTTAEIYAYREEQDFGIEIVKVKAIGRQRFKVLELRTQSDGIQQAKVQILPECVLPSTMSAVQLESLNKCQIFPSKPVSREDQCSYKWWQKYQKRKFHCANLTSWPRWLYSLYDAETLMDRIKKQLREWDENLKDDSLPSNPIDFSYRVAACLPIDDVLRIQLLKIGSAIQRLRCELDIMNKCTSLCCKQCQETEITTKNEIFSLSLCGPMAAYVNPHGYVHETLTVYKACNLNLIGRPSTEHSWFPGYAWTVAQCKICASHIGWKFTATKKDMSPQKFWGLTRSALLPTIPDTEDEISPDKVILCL
T1 sequence (P00533 25-1210 T790M/L858R): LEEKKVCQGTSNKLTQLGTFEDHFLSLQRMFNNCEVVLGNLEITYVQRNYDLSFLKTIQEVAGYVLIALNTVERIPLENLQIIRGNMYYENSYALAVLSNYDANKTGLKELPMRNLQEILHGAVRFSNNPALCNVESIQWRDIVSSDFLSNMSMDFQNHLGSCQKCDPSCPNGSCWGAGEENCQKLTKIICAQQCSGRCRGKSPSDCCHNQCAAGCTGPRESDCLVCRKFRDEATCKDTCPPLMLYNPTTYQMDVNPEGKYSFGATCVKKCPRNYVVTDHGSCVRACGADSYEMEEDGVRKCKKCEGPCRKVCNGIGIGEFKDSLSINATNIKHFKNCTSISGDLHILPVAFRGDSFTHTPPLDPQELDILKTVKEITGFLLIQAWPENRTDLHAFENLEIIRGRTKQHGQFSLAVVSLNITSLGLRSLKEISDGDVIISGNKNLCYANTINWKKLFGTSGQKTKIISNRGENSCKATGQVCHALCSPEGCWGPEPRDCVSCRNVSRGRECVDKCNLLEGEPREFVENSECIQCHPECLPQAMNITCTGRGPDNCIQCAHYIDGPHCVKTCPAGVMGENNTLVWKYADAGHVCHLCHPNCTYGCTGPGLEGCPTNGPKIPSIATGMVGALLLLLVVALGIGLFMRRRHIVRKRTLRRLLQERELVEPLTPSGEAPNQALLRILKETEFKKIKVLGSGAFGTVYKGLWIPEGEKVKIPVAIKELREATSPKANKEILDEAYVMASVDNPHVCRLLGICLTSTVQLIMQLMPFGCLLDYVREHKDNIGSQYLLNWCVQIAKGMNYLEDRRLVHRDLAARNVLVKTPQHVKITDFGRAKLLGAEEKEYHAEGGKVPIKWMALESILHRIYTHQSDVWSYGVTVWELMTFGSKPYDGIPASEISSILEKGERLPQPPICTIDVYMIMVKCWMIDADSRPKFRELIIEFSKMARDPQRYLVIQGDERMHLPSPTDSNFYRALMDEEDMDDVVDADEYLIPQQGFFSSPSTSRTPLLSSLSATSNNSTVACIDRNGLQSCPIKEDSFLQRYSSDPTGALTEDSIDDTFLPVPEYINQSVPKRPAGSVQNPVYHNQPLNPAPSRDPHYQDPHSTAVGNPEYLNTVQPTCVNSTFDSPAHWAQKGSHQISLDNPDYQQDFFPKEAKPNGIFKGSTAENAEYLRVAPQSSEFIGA

DC50 (EGFR [1])	DC50 (EGFR [2])	SMILES
9.6 nM	11.9 nM	CS(=O)(=O)N1CCc2cccc(Nc3nc(Nc4ccc(N5CCC(N6CCN(CCCC7CN(c8ccc9c(c8)C(=O)N(C8CCC(=O)NC8=O)C9=O)C7)CC6)CC5)c5c4OCC5)ncc3Cl)c21 (stereo not drawn) [Example 55, 5-(3-(3-(4-(1-(7-((5-chloro-4-((1-(methylsulfonyl)indolin-7-yl)amino)pyrimidin-2-yl)amino)-2,3-dihydrobenzofuran-4-yl)piperidin-4-yl)piperazin-1-yl)propyl)azetidin-1-yl)-2-(2,6-dioxopiperidin-3-yl)isoindoline-1,3-dione]
2.8 nM	17.7 nM	CS(=O)(=O)N1CCc2cccc(Nc3nc(Nc4ccc(N5CCC(N6CCN(C(=O)C7CN(c8ccc(C9CCC(=O)NC9=O)cc8)C7)CC6)CC5)c(F)c4)nc4[nH]ccc34)c21 (stereo not drawn) [Example 58, 3-(4-(3-(4-(1-(2-fluoro-4-((4-((1-(methylsulfonyl)indolin-7-yl)amino)-7H-pyrrolo[2,3-d]pyrimidin-2-yl)amino)phenyl)piperidin-4-yl)piperazine-1-carbonyl)azetidin-1-yl)phenyl)piperidine-2,6-dione]
2.7 nM	3.1 nM	CS(=O)(=O)N1CCc2cccc(Nc3nc(Nc4ccc(N5CCC(N6CCN(CC7CN(c8ccc9c(c8)CN(C8CCC(=O)NC8=O)C9=O)C7)CC6)CC5)c(F)c4)nc4[nH]ccc34)c21 (stereo not drawn) [Example 59, 3-(5-(3-((4-(1-(2-fluoro-4-((4-((1-(methylsulfonyl)indolin-7-yl)amino)-7H-pyrrolo[2,3-d]pyrimidin-2-yl)amino)phenyl)piperidin-4-yl)piperazin-1-yl)methyl)azetidin-1-yl)-1-oxoisoindolin-2-yl)piperidine-2,6-dione]
4.9 nM	14.6 nM	CS(=O)(=O)N1CCc2cccc(Nc3nc(Nc4ccc(N5CCC(N6CCN(CC7CN(c8ccc9c(c8)C(=O)N(C8CCC(=O)NC8=O)C9=O)C7)CC6)CC5)c(F)c4)nc4[nH]ccc34)c21 (stereo not drawn) [Example 60, 2-(2,6-dioxopiperidin-3-yl)-5-(3-((4-(1-(2-fluoro-4-((4-((1-(methylsulfonyl)indolin-7-yl)amino)-7H-pyrrolo[2,3-d]pyrimidin-2-yl)amino)phenyl)piperidin-4-yl)piperazin-1-yl)methyl)azetidin-1-yl)isoindoline-1,3-dione]
5.7 nM	19.4 nM	CS(=O)(=O)N1CCc2cccc(Nc3nc(Nc4ccc(N5CCC(N6CCN(C(=O)CC7CN(c8ccc9c(c8)C(=O)N(C8CCC(=O)NC8=O)C9=O)C7)CC6)CC5)c(F)c4)nc4[nH]ccc34)c21 (stereo not drawn) [Example 61, 2-(2,6-dioxopiperidin-3-yl)-5-(3-(2-(4-(1-(2-fluoro-4-((4-((1-(methylsulfonyl)indolin-7-yl)amino)-7H-pyrrolo[2,3-d]pyrimidin-2-yl)amino)phenyl)piperidin-4-yl)piperazin-1-yl)-2-oxoethyl)azetidin-1-yl)isoindoline-1,3-dione]
3.9 nM	> 10000 nM	CS(=O)(=O)N1CCc2cccc(Nc3nc(Nc4ccc(N5CCC(N6CCN(C(=O)[C@H]7CCN(c8ccc9c(c8)C(=O)N(C8CCC(=O)NC8=O)C9=O)C7)CC6)CC5)c(F)c4)nc4[nH]ccc34)c21 (stereo partly drawn) [Example 63, 2-(2,6-dioxopiperidin-3-yl)-5-((S)-3-(4-(1-(2-fluoro-4-((4-((1-(methylsulfonyl)indolin-7-yl)amino)-7H-pyrrolo[2,3-d]pyrimidin-2-yl)amino)phenyl)piperidin-4-yl)piperazine-1-carbonyl)pyrrolidin-1-yl)isoindoline-1,3-dione]
6.1 nM	156 nM	CS(=O)(=O)N1CCc2cccc(Nc3nc(Nc4ccc(N5CCC(N6CCN(CC[C@@H]7CCN(c8ccc(C9CCC(=O)NC9=O)cc8)C7)CC6)CC5)c(F)c4)nc4[nH]ccc34)c21 (stereo partly drawn) [Example 64, 3-(4-((R)-3-(2-(4-(1-(2-fluoro-4-((4-((1-(methylsulfonyl)indolin-7-yl)amino)-7H-pyrrolo[2,3-d]pyrimidin-2-yl)amino)phenyl)piperidin-4-yl)piperazin-1-yl)ethyl)pyrrolidin-1-yl)phenyl)piperidine-2,6-dione]
7.1 nM	18 nM	CS(=O)(=O)N1CCc2cccc(Nc3nc(Nc4ccc(N5CCC(N6CCN(CCc7ccc(NC8CCC(=O)NC8=O)cc7)CC6)CC5)c(F)c4)nc4[nH]ccc34)c21 (stereo not drawn) [Example 66, 3-((4-(2-(4-(1-(2-fluoro-4-((4-((1-(methylsulfonyl)indolin-7-yl)amino)-7H-pyrrolo[2,3-d]pyrimidin-2-yl)amino)phenyl)piperidin-4-yl)piperazin-1-yl)ethyl)phenyl)amino)piperidine-2,6-dione]
10.8 nM	29.8 nM	CS(=O)(=O)N1CCc2cccc(Nc3nc(Nc4ccc(N5CCC(N6CCN(CCc7ccc(C8CCC(=O)NC8=O)c(F)c7F)CC6)CC5)c(F)c4)nc4[nH]ccc34)c21 (stereo not drawn) [Example 69, 3-(2,3-difluoro-4-(2-(4-(1-(2-fluoro-4-((4-((1-(methylsulfonyl)indolin-7-yl)amino)-7H-pyrrolo[2,3-d]pyrimidin-2-yl)amino)phenyl)piperidin-4-yl)piperazin-1-yl)ethyl)phenyl)piperidine-2,6-dione]
3.4 nM	1170 nM	COc1cc(Nc2nc(Nc3cccc4c3N(S(C)(=O)=O)CC4)c3cc[nH]c3n2)ccc1N1CCC(N2CCN(C(=O)C3CN(c4ccc5c(c4)C(=O)N(C4CCC(=O)NC4=O)C5=O)C3)CC2)CC1 (stereo not drawn) [Example 73, 2-(2,6-dioxopiperidin-3-yl)-5-(3-(4-(1-(2-methoxy-4-((4-((1-(methylsulfonyl)indolin-7-yl)amino)-7H-pyrrolo[2,3-d]pyrimidin-2-yl)amino)phenyl)piperidin-4-yl)piperazine-1-carbonyl)azetidin-1-yl)isoindoline-1,3-dione]
4.7 nM	> 10000 nM	COc1cc(Nc2nc(Nc3cccc4c3N(S(C)(=O)=O)CC4)c3cc[nH]c3n2)ccc1N1CCC(N2CCN(C(=O)[C@H]3CCN(c4ccc5c(c4)C(=O)N(C4CCC(=O)NC4=O)C5=O)C3)CC2)CC1 (stereo partly drawn) [Example 74, 2-(2,6-dioxopiperidin-3-yl)-5-((S)-3-(4-(1-(2-methoxy-4-((4-((1-(methylsulfonyl)indolin-7-yl)amino)-7H-pyrrolo[2,3-d]pyrimidin-2-yl)amino)phenyl)piperidin-4-yl)piperazine-1-carbonyl)pyrrolidin-1-yl)isoindoline-1,3-dione]
3.9 nM	> 10000 nM	COc1cc(Nc2nc(Nc3cccc4c3N(S(C)(=O)=O)CC4)c3cc[nH]c3n2)ccc1N1CCC(N2CCN(C(=O)[C@@H]3CCN(c4ccc5c(c4)C(=O)N(C4CCC(=O)NC4=O)C5=O)C3)CC2)CC1 (stereo partly drawn) [Example 75, 2-(2,6-dioxopiperidin-3-yl)-5-((R)-3-(4-(1-(2-methoxy-4-((4-((1-(methylsulfonyl)indolin-7-yl)amino)-7H-pyrrolo[2,3-d]pyrimidin-2-yl)amino)phenyl)piperidin-4-yl)piperazine-1-carbonyl)pyrrolidin-1-yl)isoindoline-1,3-dione]
5.5 nM	4.6 nM	CS(=O)(=O)N1CCc2cccc(Nc3nc(Nc4ccc(N5CCC(N6CCN(CCCC7CN(c8ccc9c(c8)C(=O)N(C8CCC(=O)NC8=O)C9=O)C7)CC6)CC5)c(F)c4)ncc3Cl)c21 (stereo not drawn) [Example 78, 5-(3-(3-(4-(1-(4-((5-chloro-4-((1-(methylsulfonyl)indolin-7-yl)amino)pyrimidin-2-yl)amino)-2-fluorophenyl)piperidin-4-yl)piperazin-1-yl)propyl)azetidin-1-yl)-2-(2,6-dioxopiperidin-3-yl)isoindoline-1,3-dione]
12.2 nM	3.4 nM	CS(=O)(=O)N1CCc2cccc(Nc3nc(Nc4ccc(N5CCC(N6CCN(CCC7CCN(c8ccc9c(c8)C(=O)N(C8CCC(=O)NC8=O)C9=O)CC7)CC6)CC5)c(F)c4)ncc3Cl)c21 (stereo not drawn) [Example 81, 5-(4-(2-(4-(1-(4-((5-chloro-4-((1-(methylsulfonyl)indolin-7-yl)amino)pyrimidin-2-yl)amino)-2-fluorophenyl)piperidin-4-yl)piperazin-1-yl)ethyl)piperidin-1-yl)-2-(2,6-dioxopiperidin-3-yl)isoindoline-1,3-dione]
> 10000 nM	1980 nM	COc1cc(N2CCC(N3CCN(CCC4CN(c5ccc(C6CCC(=O)NC6=O)cc5)C4)CC3)CC2)ccc1Nc1ncc(Cl)c(Nc2cccc3c2N(S(C)(=O)=O)CC3)n1 (stereo not drawn) [Example 84, 3-(4-(3-(2-(4-(1-(4-((5-chloro-4-((1-(methylsulfonyl)indolin-7-yl)amino)pyrimidin-2-yl)amino)-3-methoxyphenyl)piperidin-4-yl)piperazin-1-yl)ethyl)azetidin-1-yl)phenyl)piperidine-2,6-dione]
